The values that follow come from ChEMBL document CHEMBL5215007, “Polycyclic Polyprenylated Acylphloroglucinols Bearing a Lavandulyl-Derived Substituent from Garcinia xanthochymus Fruits” (J Nat Prod, 2022).

One experiment deals with Hep 3B2. The experiment is described as follows: Antiproliferative activity against human Hep3B cells assessed as inhibition of cell proliferation incubated for 24 hrs by CCK-8 assay. Format: functional, cell-based. For orientation: Tetrazolium dyes change colour on reduction, which living cells bring about.
Experiment [1] relates to Huh-7. The experiment is described as follows: Antiproliferative activity against human Huh-7 cells assessed as inhibition of cell proliferation incubated for 24 hrs by CCK-8 assay. Particulars: Huh-7, 24 h. Format: functional, cell-based.
The test system of a further experiment is HepG2. Put plainly: Antiproliferative activity against human HepG2 cells assessed as inhibition of cell proliferation incubated for 24 hrs by CCK-8 assay. Format: functional, cell-based. Conditions: HepG2, 24 h.
In experiment [2] the test system is Huh-7. The experiment is described as follows: Induction of apoptosis in human Huh-7 cells assessed as late apoptotic cells at 12.5 uM incubated for 24 hrs by Annexin V-FITC/PI staining based flow cytometric analysis (reference value: 3.19 %). Format: functional. In general terms: Flow cytometry measures light scatter and fluorescence of single cells or particles in a stream.

Experiment [3] relates to Huh-7. Put plainly: Induction of apoptosis in human Huh-7 cells assessed as viable cells at 3.125 uM incubated for 24 hrs by Annexin V-FITC/PI staining based flow cytometric analysis (reference value: 92.31 %). Particulars: read-out: Activity. Format: functional.
The test system of experiment [4] is Huh-7. Put plainly: Induction of apoptosis in human Huh-7 cells assessed as necrotic cells at 12.5 uM incubated for 24 hrs by Annexin V-FITC/PI staining based flow cytometric analysis (reference value: 1.67 %). Format: functional.
For experiment [5], the target named is Signal transducer and activator of transcription 3 (Homo sapiens) (UniProt P40763). The experiment is described as follows: Inhibition of STAT3 phosphorylation in human Huh-7 cells at 6.25 to 12.5 uM by Western blot analysis. Format: cell-based. Conditions: dose 6.25-12.5 µM. On the technique in general: Immunoblotting shows a protein as a band on a membrane.

The test system of experiment [6] is Huh-7. Put plainly: Induction of apoptosis in human Huh-7 cells assessed as late apoptotic cells at 3.125 uM incubated for 24 hrs by Annexin V-FITC/PI staining based flow cytometric analysis (reference value: 3.19 %). Format: functional.
Experiment [7] relates to Huh-7. Put plainly: Induction of apoptosis in human Huh-7 cells assessed as early apoptotic cells at 6.25 uM incubated for 24 hrs by Annexin V-FITC/PI staining based flow cytometric analysis (reference value: 2.83 %). Format: functional.
Experiment [8] concerns Huh-7. Put plainly: Induction of apoptosis in human Huh-7 cells assessed as early apoptotic cells at 3.125 uM incubated for 24 hrs by Annexin V-FITC/PI staining based flow cytometric analysis (reference value: 2.83 %). Format: functional.
Experiment [9] has as its system Huh-7. Put plainly: Induction of apoptosis in human Huh-7 cells assessed as late apoptotic cells at 6.25 uM incubated for 24 hrs by Annexin V-FITC/PI staining based flow cytometric analysis (reference value: 3.19 %). Format: functional.
For experiment [10], the system named is Huh-7. The experiment is described as follows: Induction of apoptosis in human Huh-7 cells assessed as early apoptotic cells at 12.5 uM incubated for 24 hrs by Annexin V-FITC/PI staining based flow cytometric analysis (reference value: 2.83 %). Format: functional.
In experiment [11] the test system is Huh-7. The experiment is described as follows: Induction of apoptosis in human Huh-7 cells assessed as viable cells at 12.5 uM incubated for 24 hrs by Annexin V-FITC/PI staining based flow cytometric analysis (reference value: 92.31 %). Format: functional. Particulars: read-out: Activity.
The subject of experiment [12] is Huh-7. The experiment is described as follows: Induction of apoptosis in human Huh-7 cells assessed as necrotic cells at 6.25 uM incubated for 24 hrs by Annexin V-FITC/PI staining based flow cytometric analysis (reference value: 1.67 %). Format: functional.
Experiment [13] has as its system Huh-7. Put plainly: Induction of apoptosis in human Huh-7 cells assessed as viable cells at 6.25 uM incubated for 24 hrs by Annexin V-FITC/PI staining based flow cytometric analysis (reference value: 92.31 %). Format: functional. Particulars: read-out: Activity.
For experiment [14], the system named is Huh-7. The experiment is described as follows: Antimigratory activity against human Huh-7 cells assessed as inhibition of cell migration at 6.25 to 12.5 uM incubated for 48 hrs by scratch wound healing assay. Conditions: dose 6.25-12.5 µM. Format: functional, cell-based.
Experiment [15] has as its system Huh-7. The experiment is described as follows: Induction of apoptosis in human Huh-7 cells assessed as necrotic cells at 3.125 uM incubated for 24 hrs by Annexin V-FITC/PI staining based flow cytometric analysis (reference value: 1.67 %). Format: functional.

The structures appear in SMILES notation. Active and inactive are the calls of the source. No cut-off for these calls is given here.

Chain of Signal transducer and activator of transcription 3 (Homo sapiens) (P40763 whole entry): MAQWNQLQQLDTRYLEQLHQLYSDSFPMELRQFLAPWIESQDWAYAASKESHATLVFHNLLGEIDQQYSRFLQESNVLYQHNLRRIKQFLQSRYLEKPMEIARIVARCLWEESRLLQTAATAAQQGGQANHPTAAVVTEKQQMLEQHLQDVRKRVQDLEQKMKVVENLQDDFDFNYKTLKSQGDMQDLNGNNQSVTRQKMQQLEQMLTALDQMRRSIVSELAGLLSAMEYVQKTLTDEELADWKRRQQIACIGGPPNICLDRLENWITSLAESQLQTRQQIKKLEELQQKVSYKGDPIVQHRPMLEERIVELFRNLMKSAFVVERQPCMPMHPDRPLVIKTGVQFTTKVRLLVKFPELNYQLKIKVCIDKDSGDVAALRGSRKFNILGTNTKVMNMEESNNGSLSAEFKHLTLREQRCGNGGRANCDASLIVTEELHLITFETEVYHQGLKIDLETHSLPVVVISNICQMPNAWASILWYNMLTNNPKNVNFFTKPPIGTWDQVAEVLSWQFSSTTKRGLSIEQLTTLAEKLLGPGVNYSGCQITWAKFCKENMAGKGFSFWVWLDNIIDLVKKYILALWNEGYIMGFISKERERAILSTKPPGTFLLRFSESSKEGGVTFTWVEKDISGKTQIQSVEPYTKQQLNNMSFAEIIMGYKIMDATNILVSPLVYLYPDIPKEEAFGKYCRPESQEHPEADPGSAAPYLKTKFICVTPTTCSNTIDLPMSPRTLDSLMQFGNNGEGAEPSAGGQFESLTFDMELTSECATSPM

Turning to `C=C(C)[C@H]1C[C@]23C[C@H](CC=C(C)C)C(C)(C)[C@](CC=C(C)C)(C(=O)C(C(=O)c4cccc(O)c4)=C2O[C@@H]1C=C(C)C)C3=O`, the values for the half-maximal inhibitory concentration (IC50) in the experiment with Hep 3B2, in the experiment on Huh-7 [1] and with HepG2 were 17.9 µM, 25.1 µM and 22 µM, respectively.
With `C=C(C)CC[C@H]1C[C@]23C[C@@H](CC=C(C)C)C(C)(C)[C@](CC=C(C)C)(C(=O)C(C(=O)c4ccc(O)c(O)c4)=C2OC1(C)C)C3=O`, the IC50 worked out at 15.5 µM in the experiment with Hep 3B2, 22.9 µM with Huh-7 [1] and 22.5 µM in the experiment with HepG2.
`CC(C)=CC[C@@H]1C[C@]23C[C@@H](CC=C(C)C)C(C)(C)[C@](CC=C(C)C)(C(=O)C(C(=O)c4ccc(O)c(O)c4)=C2OC1(C)C)C3=O`: the Activity in the experiment with Huh-7 [2] is 3.3%; in the experiment on Huh-7 [4], 2.55%; with Huh-7 [6], 3.19%; in the experiment with Huh-7 [7], 8.39%; with Huh-7 [8], 10.88%; in the experiment with Huh-7 [9] it was 3.38%. The figures for the Activity in the experiment with Huh-7 [10], in the experiment with Huh-7 [12] and in the experiment on Huh-7 [15] were 10.38%, 1.69% and 1.53%, respectively. Moreover, the IC50 in the experiment with Hep 3B2 came to 9.3 µM; in the experiment on Huh-7 [1], 9.3 µM; in the experiment with HepG2 it was 4.3 µM. Moreover, in the experiment on Huh-7 [3], the viability at 3.125 µM stood at 84.4%. Also, the inhibition result in experiment [5] is “Active”. The viability at 12.5 µM with Huh-7 [11] is 83.8%. In addition, in the experiment with Huh-7 [13], the viability at 6.25 µM worked out at 86.5%. Besides, the result in the experiment with Huh-7 [14] was Active.
As to `CNC(=O)c1cc(Oc2ccc(NC(=O)Nc3ccc(Cl)c(C(F)(F)F)c3)cc2)ccn1` [SORAFENIB], the half-inhibitory concentration (IC50) in the experiment with Hep 3B2 was 12.4 µM; in the experiment with Huh-7 [1], 9.7 µM; in the experiment on HepG2, 16.6 µM.
As for `CC(C)=CC[C@@H]1C[C@]23C[C@H](CCC(C)(C)O)C(C)(C)OC2=C(C(=O)c2ccc(O)c(O)c2)C(=O)[C@@](CC=C(C)C)(C3=O)C1(C)C`, the IC50 in the experiment with Hep 3B2 stood at 9 µM; with Huh-7 [1] it was 12.6 µM; in the experiment on HepG2, 3.9 µM.
In the case of `C=C(C)[C@H]1C[C@]23C[C@H](CC=C(C)C)C(C)(C)[C@](CC=C(C)C)(C(=O)C(C(=O)c4ccc(O)c(O)c4)=C2O[C@@H]1C=C(C)C)C3=O`, the half-maximal inhibitory concentration (IC50) with Hep 3B2 amounted to 18.2 µM; in the experiment with Huh-7 [1], 18.1 µM; with HepG2 it was 11 µM.
As to `C=C(C)CC[C@@H]1C[C@]23C[C@H](CC=C(C)C)C(C)(C)[C@](CC=C(C)C)(C(=O)C(C(=O)c4cccc(O)c4)=C2OC1(C)C)C3=O`, the IC50 in the experiment with Hep 3B2 stood at 44.8 µM; with Huh-7 [1], 28.2 µM; in the experiment on HepG2 it was 12.4 µM.
For the compound `C=C(C)CC[C@@H](C[C@]12C[C@H](CC=C(C)C)C(C)(C)[C@](CC=C(C)C)(C(=O)C(C(=O)c3cccc(O)c3)=C1O)C2=O)C(=C)C`, the values for the 50% inhibitory concentration (IC50) in the experiment on Hep 3B2, with Huh-7 [1] and in the experiment on HepG2 were 20.8 µM, 27.2 µM and 23.2 µM, respectively.
As for `C=C(C)CC[C@@H]1C[C@]23C[C@@H](CC=C(C)C)C(C)(C)[C@](CC=C(C)C)(C(=O)C(C(=O)c4ccc(O)c(O)c4)=C2OC1(C)C)C3=O`, the Activity is listed as 6.37% in the experiment with Huh-7 [2]; 4.17% in the experiment on Huh-7 [4]; 5.35% in the experiment with Huh-7 [6]; 11.09% in the experiment on Huh-7 [7]; 11.74% in the experiment on Huh-7 [8]; 5.65% in the experiment with Huh-7 [9]. The results for the Activity in the experiment on Huh-7 [10], in the experiment on Huh-7 [12] and in the experiment on Huh-7 [15] were 11.75%, 3.01% and 2.09%, respectively. In addition, the 50% inhibitory concentration (IC50) in the experiment with Hep 3B2 was 17.1 µM; in the experiment on Huh-7 [1], 9.3 µM; in the experiment with HepG2, 11.3 µM. The viability at 3.125 µM in the experiment on Huh-7 [3] worked out at 80.8%. For the same compound, in experiment [5], the inhibition entry is “Active”. The viability at 12.5 µM with Huh-7 [11] was found to be 77.7%. For the same compound, the viability at 6.25 µM in the experiment on Huh-7 [13] is 80.3%. In the experiment with Huh-7 [14], the result was Active.
Consider `C=C(C)CC[C@@H]1C[C@]23C[C@H](CCC(C)(C)O)C(C)(C)[C@](CC=C(C)C)(C(=O)C(C(=O)c4ccc(O)c(O)c4)=C2OC1(C)C)C3=O`, for which the IC50 with Hep 3B2 stood at 15.8 µM; in the experiment with Huh-7 [1], 17.3 µM; in the experiment on HepG2, 9.5 µM.
Consider `CC(C)=CC[C@@H]1C[C@]23C[C@H](CCC(C)(C)O)C(C)(C)[C@](CC=C(C)C)(C(=O)C(C(=O)c4ccc(O)c(O)c4)=C2OC1(C)C)C3=O`, for which the half-maximal inhibitory concentration (IC50) turned out to be 23.9 µM with Hep 3B2, 20.6 µM in the experiment with Huh-7 [1] and 11.7 µM with HepG2.

Broadly, the IC50 is the point on the concentration scale where inhibition reaches its midpoint.
